The source of these data is patent publication US11976280B2, “SMAC/Diablo inhibitors useful for treating cancer” (THE NATIONAL INSTITUTE FOR BIOTECHNOLOGY IN THE NEGEV LTD., priority 2017, dated 2024).

The test system of series [1] is A549 cells. The series can be described thus: SRB cell growth of A549 cells treated with peptide conjugates (Table 8). The note with it: 48 h in serum (10%) medium or 24 h serum-free, mean±SD (n=3). Type of series: cell-based, human. As to the method:
A549 cells were seeded in 96-well plate (5000 cells/well). After 24 h cells were incubated with each of the examined peptides at a concentration of 5, 10, or 30 μM for 48 h in a serum (10%) containing medium or for 24 h in a serum-free medium. Then, cells were washed with PBS, fixed with 10% trichloroacetic acid, and analyzed for cell growth using the SRB method described herein above. Cell growth with no addition of a peptide was taken as a control (100% cell growth). Table 8 presents the cell growth in the presence of the peptide as % of control. Results are the mean±SD (n=3).

Series [2] has as its target T1, SMAC/Diablo (Homo sapiens, UniProt Q9NR28).
T1 sequence (Q9NR28 22-239): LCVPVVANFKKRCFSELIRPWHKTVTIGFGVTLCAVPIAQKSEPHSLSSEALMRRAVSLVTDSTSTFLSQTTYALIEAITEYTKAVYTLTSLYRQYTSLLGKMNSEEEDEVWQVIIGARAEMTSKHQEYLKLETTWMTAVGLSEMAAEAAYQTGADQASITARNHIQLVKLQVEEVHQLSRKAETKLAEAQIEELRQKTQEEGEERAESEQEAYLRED
The series can be described thus: Peptide array after pre-incubation of SMAC/Diablo with free peptide. Type of series: binding. The note with it: for SMAC/Diablo interaction with the corresponding array-bound peptide: SMAC 0.8 μM pre-incubated with free peptide 2.4 μM. On the procedure:
The glass-bound peptide array described hereinabove was used. SMAC/Diablo (0.8 μM) was incubated with each of the peptides—2C18 (2.4 μM) and 1G12 (2.4 μM) for 2 hr at 24° C. and then incubated with the peptide array for 4 h at 4° C. Then the slides were washed and SMAC/Diablo antibodies (1:2000) were added, followed by incubation with HRP-conjugated anti-mouse IgG after which chemiluminescent spots were detected. Corresponding glass-bound peptide array incubated overnight with 0.8 μM free SMAC/Diablo, blotted with the same concentration of SMAC/Diablo antibodies followed by incubation with HRP-conjugated anti-mouse IgG served as a control. […] This is indicated by the decreased intensity or disappearance of chemiluminescence in the peptide spot position compared to the control (FIG. 16 and FIG. 17, respectively). Moreover, pre-incubation of SMAC/Diablo with peptide 2C18 decreased SMAC/Diablo interaction with the array-bound peptides 1M17 and 1N23 derived from Nuclear receptor subfamily 4 group A member 1 Protein (NR4A1) and peptide 1K20 derived from TNF receptor associated factor 2 Protein (TRAF2) (FIG. 16B, eliminated spots are circled).

Series [3] concerns A549 cells. As to the kind of experiment: SRB cell growth assay, si-hSMAC B-D and 2′-O-Me modified siRNAs. Type of series: cell-based, human. Conditions: 30 and 50 nM. On the procedure:
The siRNAs were synthesized by Genepharma (Suzhou, China). Cells were seeded (150,000 cells/well) on 6-well culture dishes to 40-60% confluence and transfected with 10-100 nM si-NT or si-hSMAC/Diablo using the JetPRIME transfection reagent (Illkirch, France), according to the manufacturers' instructions.
Twenty-four hours post-transfection with si-NT or si-hSMAC, cells (10,000/well) were counted and seeded in 96-well plates. After additional 48, 72 or 96 hours, the cells were washed with PBS, fixed with 10% trichloroacetic acid, and stained with SRB. SRB was extracted from the cells using 100 mM Tris base and absorbance at 510 nm was determined using an Infinite M1000 plate reader (Tecan, Männedorf, Switzerland).
si-hSMAC-A and si-hSMAC-B were modified by 2′-O methylation (2′-O Me) to form si-hSMAC-A1, si-hSMAC-A2 si-hSMAC-A3 si-hSMAC-A4 si-hSMAC-B1 si-hSMAC-B2 si-hSMAC-B3 and si-hSMAC-B4 described hereinabove. The effect of these modified forms on SMAC/Diablo expression and on cell proliferation was examined using 30 and 50 nM of each inhibitory RNA molecule in the lung cancer line A549.

Where [4] appears, read: pre-incubation with free peptide 2.4 μM.

Non-standard residues stand in square brackets, D forms with d. No end group written: not given here. Dmt = Cc1cc(O)cc(C)c1C[C@H](N)C(=O)O; Orn = NCCC[C@H](N)C(=O)O; d = 2'-deoxy (DNA); m = 2'-O-methyl; r = 2'-OH (RNA)

Turning to “mtCPP-2C18: peptide conjugate targeted to mitochondria, SEQ ID NO:74 ([dR][Dmt][Orn]FVRFITKIWHPNISSVTGAICLDILK)”, the “Cell growth, % of control” value in series [1] (peptide 5 μM) is 89 ± 0.005 % of control; in series [1] (peptide 10 μM), 74 ± 0.004 % of control; in series [1] (peptide 30 μM) it was 59 ± 0.004 % of control.

Regarding “1H13-nuCPP: peptide conjugate targeted to nucleus, SEQ ID NO:69 (SGCAFLSVKKQFEELTLGEFLKLDR[dR]RK)”, the “Cell growth, % of control” value is on record as 92 ± 0.018 % of control in series [1] (peptide 5 μM), 57 ± 0.013 % of control in series [1] (peptide 10 μM) and 30 ± 0.009 % of control in series [1] (peptide 30 μM).

“ANT-2C18 (MRQIKIWFQNRRMKWKVRFITKIWHPNISSVTGAICLDILK)”: the “Cell growth, % of control” value in series [1] (peptide 5 μM) was 127 ± 0.006 % of control; in series [1] (peptide 10 μM), 145 ± 0.0162 % of control; in series [1] (peptide 30 μM), 97 ± 0.011 % of control.

In the case of LIRKNRMALFQQLTCVLPILDNLLK [1G12], the “SMAC/Diablo interaction with the corresponding array-bound peptide” value in series [2] was “significantly decreased or even prevented”. In addition, the “SMAC/Diablo interaction with array-bound 1G12, 1G13, 1H13 (BIRC5) and 2D9 (MAML2)” value in series [2] (setting [4]) is given as “significantly reduced”.

For “si-hSMAC-B2: si-hSMAC-B with 2′-O-Me at sense positions 4, 9, 13, 17 (SEQ ID NO:38) and antisense 6, 12, 18 (SEQ ID NO:39) (sense GCAGAUCAGGCCUCUAUAATT; antisense UUAUAGAGGCCUGAUCUGCTT; sense: sugars from the 5' end rrrmrrrrmrrrmrrrmrrdd, backbone not given here; antisense: sugars from the 5' end rrrrrmrrrrrmrrrrrmrdd, backbone not given here)”, the “reducing cell proliferation, ranking among modified molecules” value (“reducing cell proliferation” for short) in series [3] was “most active”.

As for “1H13-mtCPP-NH2: peptide conjugate targeted to mitochondria, SEQ ID NO:73 (SGCAFLSVKKQFEELTLGEFLKLD[dR][Dmt][Orn]F-NH2)”, the “Cell growth, % of control” value in series [1] (peptide 5 μM) is given as 85 ± 0.022 % of control; in series [1] (peptide 10 μM) it was 60 ± 0.018 % of control; in series [1] (peptide 30 μM), 49 ± 0.014 % of control.

Regarding “1G12-nuCPP: peptide conjugate targeted to nucleus, SEQ ID NO:70 (LIRKNRMALFQQLTCVLPILDNLLKR[dR]RK)”, the “Cell growth, % of control” value in series [1] (peptide 5 μM) is 109 ± 0.013 % of control; in series [1] (peptide 10 μM) it was 76 ± 0.024 % of control; in series [1] (peptide 30 μM) it was 39 ± 0.013 % of control.

For the substance “nuCPP-1G12: peptide conjugate targeted to nucleus, SEQ ID NO:71 (R[dR]RKLIRKNRMALFQQLTCVLPILDNLLK)”, the entries for the “Cell growth, % of control” value in series [1] (peptide 5 μM), in series [1] (peptide 10 μM) and in series [1] (peptide 30 μM) were 96 ± 0.012 % of control, 72 ± 0.01 % of control and 66 ± 0.009 % of control, respectively.

VRFITKIWHPNISSVTGAICLDILK [2C18]: the “SMAC/Diablo interaction with the corresponding array-bound peptide” value in series [2] is “significantly decreased or even prevented”. Also, the “SMAC/Diablo interaction with array-bound peptides 1M17, 1N23 (NR4A1) and 1K20 (TRAF2)” value in series [2] (setting [4]) was “decreased”.

As to “TF-1G12: peptide conjugate targeted to cytosol, SEQ ID NO:76 (HAIYPRLIRKNRMALFQQLTCVLPILDNLLK; not fully specified)”, the results for the “Cell growth, % of control” value in series [1] (peptide 5 μM), in series [1] (peptide 10 μM) and in series [1] (peptide 30 μM) were 99 ± 0.004 % of control, 98 ± 0.005 % of control and 99 ± 0.005 % of control, respectively.

For the substance “si-hSMAC-A1: si-hSMAC-A with 2′-O-Me at sense positions 5, 10, 16, 21 (SEQ ID NO:28) and antisense 6, 12, 19 (SEQ ID NO:29) (sense AAGCGGUGUUUCUCAGAAUUGTT; antisense AACAAUUCUGAGAAACCCGCTT; sense: sugars from the 5' end rrrrmrrrrmrrrrrmrrrrmdd, backbone not given here; antisense: sugars from the 5' end rrrrrmrrrrrmrrrrrrmrdd, backbone not given here)”, the “reducing cell proliferation” value in series [3] was “most active in reducing cell proliferation”.

On to “si-hSMAC-A4: si-hSMAC-A with 2′-O-Me at sense positions 3, 6, 11, 21 (SEQ ID NO:34) and antisense 6, 19 (SEQ ID NO:35) (sense AAGCGGUGUUUCUCAGAAUUGTT; antisense AACAAUUCUGAGAAACCCGCTT; sense: sugars from the 5' end rrmrrmrrrrmrrrrrrrrrmdd, backbone not given here; antisense: sugars from the 5' end rrrrrmrrrrrrrrrrrrmrdd, backbone not given here)”, for which, in series [3], the “reducing cell proliferation” value is given as “most active in reducing cell proliferation”.

For the substance “si-hSMAC-B3: si-hSMAC-B with 2′-O-Me at sense positions 6, 10, 15 (SEQ ID NO:40) and antisense 2, 9, 17 (SEQ ID NO:41) (sense GCAGAUCAGGCCUCUAUAATT; antisense UUAUAGAGGCCUGAUCUGCTT; sense: sugars from the 5' end rrrrrmrrrmrrrrmrrrrdd, backbone not given here; antisense: sugars from the 5' end rmrrrrrrmrrrrrrrmrrdd, backbone not given here)”, the “reducing cell proliferation” value in series [3] is “most active”.
